Source: PubChem BioAssay (NCI)
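Step 1: Grow cells in 96-well plates. Step 2: Expose to compound for 48 hours at 5 concentrations. Step 3: Interpolate endpoints linearly; if unreached, use highest concentration. GI50 marks 50% less growth. TGI: concentration producing complete growth inhibition.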

Experiments:
Assay in all cases: inhibition of tumour cell growth, NCI panel, 48 h
786-0 renal = system: 786-0 renal
SN12C renal = system: SN12C renal
SF-268 CNS = system: SF-268 CNS
UACC-62 melanoma = system: UACC-62 melanoma
SW-620 colon = system: SW-620 colon
UO-31 renal = system: UO-31 renal
OVCAR-5 ovarian = system: OVCAR-5 ovarian
MALME-3M melanoma = system: MALME-3M melanoma
HOP-62 NSCLC = system: HOP-62 NSCLC

O=C1C=CC=CC2CC=C[C@@H](O)C12 (stereo not given in full)
TGI (786-0 renal): 33.8 µM
TGI (SN12C renal): 47.2 µM
TGI (SF-268 CNS): 54.5 µM
TGI (UACC-62 melanoma): 38.5 µM
TGI (SW-620 colon): 35.3 µM
TGI (UO-31 renal): 31.5 µM
TGI (OVCAR-5 ovarian): 63 µM
TGI (MALME-3M melanoma): 46.8 µM
TGI (HOP-62 NSCLC): > 100 µM

O=C(O)COc1ccc(O)c2c1C(=O)CCCC2=O
TGI (786-0 renal): > 100 µM
TGI (SN12C renal): > 100 µM
TGI (SF-268 CNS): > 100 µM
TGI (UACC-62 melanoma): > 100 µM
TGI (SW-620 colon): > 100 µM
TGI (UO-31 renal): > 100 µM
TGI (OVCAR-5 ovarian): > 100 µM
TGI (MALME-3M melanoma): > 100 µM
TGI (HOP-62 NSCLC): > 100 µM

COc1ccccc1N=C(N)N/N=C/c1c[nH]c2ccccc12
TGI (786-0 renal): 26 µM
TGI (SN12C renal): 22.7 µM
TGI (SF-268 CNS): 29.1 µM
TGI (UACC-62 melanoma): 27 µM
TGI (SW-620 colon): 10.4 µM
TGI (UO-31 renal): 27.1 µM
TGI (OVCAR-5 ovarian): 26.9 µM
TGI (MALME-3M melanoma): 8.19 µM
TGI (HOP-62 NSCLC): 30.2 µM

CCCCS(=O)CCC(N)C(=O)O (stereo not given)
TGI (786-0 renal): > 100 µM
TGI (SN12C renal): > 100 µM
TGI (SF-268 CNS): > 100 µM
TGI (UACC-62 melanoma): > 100 µM
TGI (SW-620 colon): > 100 µM
TGI (UO-31 renal): > 100 µM
TGI (OVCAR-5 ovarian): > 100 µM
TGI (MALME-3M melanoma): > 100 µM
TGI (HOP-62 NSCLC): > 100 µM

COc1ccccc1/C=C/[N+](=O)[O-]
GI50 (786-0 renal): 1.82 µM
TGI (786-0 renal): 3.35 µM
GI50 (SN12C renal): 2.47 µM
TGI (SN12C renal): 8.03 µM
GI50 (SF-268 CNS): 2.39 µM
TGI (SF-268 CNS): 5.12 µM
GI50 (UACC-62 melanoma): 1.95 µM
TGI (UACC-62 melanoma): 4.13 µM
GI50 (SW-620 colon): 1.56 µM
TGI (SW-620 colon): 3.19 µM
GI50 (UO-31 renal): 1.45 µM
TGI (UO-31 renal): 2.8 µM
GI50 (OVCAR-5 ovarian): 3.55 µM
TGI (OVCAR-5 ovarian): 14.1 µM
GI50 (MALME-3M melanoma): 2.82 µM
TGI (MALME-3M melanoma): 9.11 µM
GI50 (HOP-62 NSCLC): 2.57 µM
TGI (HOP-62 NSCLC): 7.12 µM

CN(C)c1ccc([O-])cc1.CN(C)c1ccc([O-])cc1.CN(C)c1ccc([O-])cc1.CN(C)c1ccc([O-])cc1.[Ti+4]
GI50 (786-0 renal): > 100 µM
TGI (786-0 renal): > 100 µM
GI50 (SN12C renal): > 100 µM
TGI (SN12C renal): > 100 µM
GI50 (SF-268 CNS): > 100 µM
TGI (SF-268 CNS): > 100 µM
GI50 (UACC-62 melanoma): > 100 µM
TGI (UACC-62 melanoma): > 100 µM
GI50 (SW-620 colon): 69.9 µM
TGI (SW-620 colon): > 100 µM
GI50 (UO-31 renal): > 100 µM
TGI (UO-31 renal): > 100 µM
GI50 (OVCAR-5 ovarian): > 100 µM
TGI (OVCAR-5 ovarian): > 100 µM
GI50 (MALME-3M melanoma): > 100 µM
TGI (MALME-3M melanoma): > 100 µM
GI50 (HOP-62 NSCLC): > 100 µM
TGI (HOP-62 NSCLC): > 100 µM

CCOC(=O)C1=C(C(=O)c2ccc(C)cc2)C(c2cccc([N+](=O)[O-])c2)C(C(=O)c2ccc(C)cc2)=C(C(=O)OCC)N1
TGI (786-0 renal): 32.9 µM
TGI (SN12C renal): 32.4 µM
TGI (SF-268 CNS): 46.1 µM
TGI (UACC-62 melanoma): 33.5 µM
TGI (SW-620 colon): 27.1 µM
TGI (UO-31 renal): 29.5 µM
TGI (OVCAR-5 ovarian): 34.7 µM
TGI (MALME-3M melanoma): 66.4 µM
TGI (HOP-62 NSCLC): 41 µM

CCCn1c(SC)nc(COC(=O)NC)c1COC(=O)NC
TGI (786-0 renal): > 100 µM
TGI (SN12C renal): > 100 µM
TGI (SF-268 CNS): > 100 µM
TGI (UACC-62 melanoma): > 100 µM
TGI (SW-620 colon): > 100 µM
TGI (UO-31 renal): > 100 µM
TGI (OVCAR-5 ovarian): > 100 µM
TGI (HOP-62 NSCLC): > 100 µM

Clc1ccc(Cc2nc3ccccc3s2)c(Cl)c1
TGI (786-0 renal): 27.8 µM
TGI (SN12C renal): 30.3 µM
TGI (SF-268 CNS): 30.5 µM
TGI (UACC-62 melanoma): 28.9 µM
TGI (SW-620 colon): 46.4 µM
TGI (UO-31 renal): 30 µM
TGI (OVCAR-5 ovarian): 38.7 µM
TGI (MALME-3M melanoma): 30.9 µM
TGI (HOP-62 NSCLC): 32.9 µM

O=[N+]([O-])c1ccc(S(=O)Cc2ccccc2)c([N+](=O)[O-])c1 (stereo not given)
GI50 (786-0 renal): 4.91 µM
TGI (786-0 renal): 17.3 µM
GI50 (SN12C renal): 11.6 µM
TGI (SN12C renal): 33.1 µM
GI50 (SF-268 CNS): 13.4 µM
TGI (SF-268 CNS): 26.6 µM
GI50 (UACC-62 melanoma): 2.55 µM
TGI (UACC-62 melanoma): 8.89 µM
GI50 (SW-620 colon): 1.33 µM
TGI (SW-620 colon): 2.65 µM
GI50 (UO-31 renal): 1.47 µM
TGI (UO-31 renal): 2.91 µM
GI50 (OVCAR-5 ovarian): 14.5 µM
TGI (OVCAR-5 ovarian): 29.9 µM
GI50 (MALME-3M melanoma): 1.62 µM
TGI (MALME-3M melanoma): 3.26 µM
GI50 (HOP-62 NSCLC): 11.6 µM
TGI (HOP-62 NSCLC): 23.8 µM

CC1CC#CCOC(=O)CCCC1=O (stereo not given)
TGI (786-0 renal): > 100 µM
TGI (SN12C renal): > 100 µM
TGI (SF-268 CNS): > 100 µM
TGI (UACC-62 melanoma): > 100 µM
TGI (SW-620 colon): > 100 µM
TGI (HOP-62 NSCLC): > 100 µM

O=C(c1ccccc1)C1CCCCN1C(=O)c1ccccc1 (stereo not given)
TGI (786-0 renal): > 100 µM
TGI (SN12C renal): > 100 µM
TGI (SF-268 CNS): > 100 µM
TGI (UACC-62 melanoma): > 100 µM
TGI (SW-620 colon): > 100 µM
TGI (UO-31 renal): > 100 µM
TGI (MALME-3M melanoma): > 100 µM
TGI (HOP-62 NSCLC): > 100 µM

CC1CCP(=O)(c2ccccc2)c2ccccc21 (stereo not given)
TGI (786-0 renal): > 100 µM
TGI (SN12C renal): 85.6 µM
TGI (UACC-62 melanoma): > 100 µM
TGI (UO-31 renal): > 100 µM
TGI (OVCAR-5 ovarian): > 100 µM
TGI (MALME-3M melanoma): > 100 µM
TGI (HOP-62 NSCLC): > 100 µM

O=C1c2ccc([N+](=O)[O-])cc2-c2c1c1ccccc1c(=O)n2CCCNCCCNCCCn1c2c(c3ccc([N+](=O)[O-])cc3c1=O)C(=O)c1ccccc1-2
GI50 (786-0 renal): 1.2 µM
TGI (786-0 renal): 7.21 µM
GI50 (SN12C renal): 0.355 µM
TGI (SN12C renal): 2.91 µM
GI50 (SF-268 CNS): 0.988 µM
TGI (SF-268 CNS): 12.8 µM
GI50 (UACC-62 melanoma): 1.71 µM
TGI (UACC-62 melanoma): 4.85 µM
GI50 (SW-620 colon): 0.81 µM
TGI (SW-620 colon): 3.07 µM
GI50 (UO-31 renal): 10.4 µM
TGI (UO-31 renal): 33.8 µM
GI50 (OVCAR-5 ovarian): 3.05 µM
TGI (OVCAR-5 ovarian): 11.3 µM
GI50 (MALME-3M melanoma): 5.51 µM
TGI (MALME-3M melanoma): 41.7 µM
GI50 (HOP-62 NSCLC): 1.85 µM
TGI (HOP-62 NSCLC): 12.4 µM

Nc1nc2c(c(=O)[nH]1)NC(CO)CN2 (stereo not given)
TGI (786-0 renal): > 100 µM
TGI (SN12C renal): > 100 µM
TGI (UACC-62 melanoma): > 100 µM
TGI (SW-620 colon): > 100 µM
TGI (UO-31 renal): > 100 µM
TGI (MALME-3M melanoma): > 100 µM
TGI (HOP-62 NSCLC): > 100 µM

COC(=O)C(C(=O)C(=O)Nc1ccc(C(F)(F)F)cc1[N+](=O)[O-])c1csc(-n2nc(-c3ccccc3)cc2-c2ccccc2)n1 (stereo not given)
TGI (786-0 renal): > 100 µM
TGI (SN12C renal): > 100 µM
TGI (UACC-62 melanoma): > 100 µM
TGI (SW-620 colon): > 100 µM
TGI (UO-31 renal): > 100 µM
TGI (OVCAR-5 ovarian): > 100 µM
TGI (MALME-3M melanoma): > 100 µM
TGI (HOP-62 NSCLC): > 100 µM
